According to patent publication US8993595B2, “Macrocyclic serine protease inhibitors” (priority 2009, dated 2015):

Tests used:
[1] = target: T1, HCV NS3-4A Protease Genotype 3a (Hepatitis C virus genotype 3a, UniProt Q81258); experiment: HCV protease assay, recombinant NS3-4A genotype 3a; format: biochemical; details: mean ± SD, 3 experiments
T1 construct: recombinant HCV NS3-4A proteases
Method: (§1) The compounds were tested at a variety of concentrations in assay buffer containing a final DMSO concentration of 5%. Reactions were allowed to proceed for 60 min at room temperature and fluorescence measurements were recorded with a Tecan Infinity Spectrofluorimeter. The IC50 values were determined from the percent inhibition versus concentration data using a sigmoidal non-linear regression analysis based on four parameters with Tecan Magellan software.
(§2) Compound 52 was tested against genotypes 1a, 1b, 2a, 3a, and 4a of recombinant HCV NS3-4A proteases, along with other cellular proteases.

[2] = Pharmacokinetics in human volunteers, single dose cohorts
human CYP450 1A2 = target: T2, human CYP450 1A2 (Homo sapiens, UniProt P05177); experiment: CYP450 inhibition assay, 1A2; format: in vitro ADME
T2 construct: purchased BD Bioscience
T2 sequence (P05177 whole entry): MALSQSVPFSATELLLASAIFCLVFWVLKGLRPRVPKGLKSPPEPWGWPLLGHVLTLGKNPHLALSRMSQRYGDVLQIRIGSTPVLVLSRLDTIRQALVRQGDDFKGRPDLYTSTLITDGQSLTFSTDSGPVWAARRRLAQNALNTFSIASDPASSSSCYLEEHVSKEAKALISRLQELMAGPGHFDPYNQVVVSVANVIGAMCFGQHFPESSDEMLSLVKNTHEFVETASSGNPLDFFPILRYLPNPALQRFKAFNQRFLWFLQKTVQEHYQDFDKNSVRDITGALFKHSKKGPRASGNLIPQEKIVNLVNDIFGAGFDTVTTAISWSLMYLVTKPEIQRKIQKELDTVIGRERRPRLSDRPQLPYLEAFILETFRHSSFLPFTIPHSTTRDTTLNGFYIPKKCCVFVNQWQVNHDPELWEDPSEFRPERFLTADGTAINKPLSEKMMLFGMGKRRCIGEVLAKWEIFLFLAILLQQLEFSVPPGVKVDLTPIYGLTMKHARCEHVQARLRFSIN
Method: (§3) Compound 52 was incubated with human CYP450 cDNA-expressed isoenzymes according to the protocol (BD Bioscience). For CYP2C9, a luminogenic substrate was used with the P450-Glo™ kit. In addition, the effect of the compound on CYP2C9-mediated diclofenac metabolism was measured by LC-UV. The potential inhibitory effect of the compound on human UGT1A1 was examined using human liver microsomes and bilirubin as substrate. The metabolites (mono- and di-glucuronidated bilirubin) were measured by LC-UV.

[3] = system: Replicon cells (genotype 1b); experiment: Long-term treatment assay in replicon cells; format: cell-based, HCV
Method: Compound 52 was tested in a long-term treatment assay. Replicon cells (genotype 1b) were treated with the compound, without G418, for 14 days, and the level of replicon RNA was measured at multiple time points. At the end of the 14-day treatment, cells were cultured in the absence of the compound, but with or without G418, in 10 cm dishes for 21 days. Surviving cell colonies were then stained with crystal violet and counted.

[4] = target: T3, HCV NS3-4A Protease Genotype 1a (Hepatitis C virus genotype 1a, UniProt P27958); experiment: HCV protease assay, recombinant NS3-4A genotype 1a; format: biochemical; details: mean ± SD, 3 experiments
T3 construct: recombinant HCV NS3-4A proteases
T3 sequence (P27958 1658-1711): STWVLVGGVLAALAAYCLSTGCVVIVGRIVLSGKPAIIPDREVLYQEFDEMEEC
T3 sequence (P27958 1027-1657): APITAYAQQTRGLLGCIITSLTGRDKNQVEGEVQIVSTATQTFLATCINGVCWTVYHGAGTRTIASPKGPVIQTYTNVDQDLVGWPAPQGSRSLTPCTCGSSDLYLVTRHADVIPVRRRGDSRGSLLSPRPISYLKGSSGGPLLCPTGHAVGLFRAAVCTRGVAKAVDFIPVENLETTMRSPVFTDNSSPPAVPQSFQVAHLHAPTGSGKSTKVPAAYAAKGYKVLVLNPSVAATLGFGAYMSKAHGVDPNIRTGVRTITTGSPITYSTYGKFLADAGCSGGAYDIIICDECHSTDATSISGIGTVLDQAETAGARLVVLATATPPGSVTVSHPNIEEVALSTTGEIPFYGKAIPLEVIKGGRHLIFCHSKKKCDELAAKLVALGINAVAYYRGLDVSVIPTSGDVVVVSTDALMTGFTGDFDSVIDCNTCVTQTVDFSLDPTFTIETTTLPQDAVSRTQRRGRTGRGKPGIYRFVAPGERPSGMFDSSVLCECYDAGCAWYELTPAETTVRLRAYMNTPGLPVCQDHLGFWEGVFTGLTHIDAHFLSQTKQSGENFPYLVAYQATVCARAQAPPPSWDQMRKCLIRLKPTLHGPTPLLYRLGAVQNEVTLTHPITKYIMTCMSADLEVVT
Method: as §1, §2

in vitro = format: cell-based; details: 48 hrs, intracellular ATP
Method: Freshly isolated hepatocytes were incubated with various concentrations of […] for 48 hrs. Intracellular ATP content was measured (CellTiter-Glo luminescent cell viability assay) to determine cell cytotoxicity (CC50).

in vivo = details: for Mean concentration, Heart / Mean concentration, Liver / Mean concentration, Plasma / Kp: single 2 mg/kg oral dose; for AUC(0-inf) / C24 h / F / AUC(0-t) / Vd / clearance / half-life / Cmax / Tmax / Kp: 2 mg/kg
Method: Male mice (3/time point) and monkeys (3/dose group) were given a single IV or PO dose of compound 52 in a PEG-based vehicle. The compound was quantified in liver (LLOQ=25 ng/g) and heart (LLOQ=50 ng/g) tissue (mice only) and in plasma samples (LLOQ=5 ng/mL) after liquid-liquid extraction by HPLC-MS/MS. Six healthy volunteers were given a single 200 mg dose of the compound using the selected tablet formulation and plasma concentrations were similarly determined (LLOQ=2 ng/mL). PK parameters were calculated using WinNonlin.

human UGT1A1 = target: T4, human UGT1A1 (Homo sapiens, UniProt P22309); experiment: UGT1A1 inhibition assay; format: in vitro ADME; details: human liver microsomes, bilirubin as substrate
T4 construct: examined using human liver microsomes and bilirubin as substrate; from tissue; host or cells: human liver microsomes
T4 sequence (P22309 26-533): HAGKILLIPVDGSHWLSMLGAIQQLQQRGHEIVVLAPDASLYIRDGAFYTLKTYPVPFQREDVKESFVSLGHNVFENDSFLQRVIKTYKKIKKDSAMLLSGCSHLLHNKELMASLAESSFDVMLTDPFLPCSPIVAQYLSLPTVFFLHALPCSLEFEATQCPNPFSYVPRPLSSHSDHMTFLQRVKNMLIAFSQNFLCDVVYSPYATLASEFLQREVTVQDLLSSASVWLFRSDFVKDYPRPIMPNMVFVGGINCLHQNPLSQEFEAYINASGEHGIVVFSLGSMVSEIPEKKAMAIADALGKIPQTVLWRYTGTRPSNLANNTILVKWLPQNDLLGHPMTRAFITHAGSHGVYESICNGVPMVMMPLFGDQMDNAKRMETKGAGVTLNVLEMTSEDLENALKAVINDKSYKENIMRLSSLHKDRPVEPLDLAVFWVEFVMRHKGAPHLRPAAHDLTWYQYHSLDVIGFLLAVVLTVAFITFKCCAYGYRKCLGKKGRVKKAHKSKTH
Method: as §3

[5] = target: T5, HCV NS3-4A Protease Genotype 2a (Hepatitis C virus genotype 2a, UniProt Q99IB8); experiment: HCV protease assay, recombinant NS3-4A genotype 2a; format: biochemical; details: mean ± SD, 3 experiments
T5 construct: recombinant HCV NS3-4A proteases
T5 sequence (Q99IB8 1031-1661): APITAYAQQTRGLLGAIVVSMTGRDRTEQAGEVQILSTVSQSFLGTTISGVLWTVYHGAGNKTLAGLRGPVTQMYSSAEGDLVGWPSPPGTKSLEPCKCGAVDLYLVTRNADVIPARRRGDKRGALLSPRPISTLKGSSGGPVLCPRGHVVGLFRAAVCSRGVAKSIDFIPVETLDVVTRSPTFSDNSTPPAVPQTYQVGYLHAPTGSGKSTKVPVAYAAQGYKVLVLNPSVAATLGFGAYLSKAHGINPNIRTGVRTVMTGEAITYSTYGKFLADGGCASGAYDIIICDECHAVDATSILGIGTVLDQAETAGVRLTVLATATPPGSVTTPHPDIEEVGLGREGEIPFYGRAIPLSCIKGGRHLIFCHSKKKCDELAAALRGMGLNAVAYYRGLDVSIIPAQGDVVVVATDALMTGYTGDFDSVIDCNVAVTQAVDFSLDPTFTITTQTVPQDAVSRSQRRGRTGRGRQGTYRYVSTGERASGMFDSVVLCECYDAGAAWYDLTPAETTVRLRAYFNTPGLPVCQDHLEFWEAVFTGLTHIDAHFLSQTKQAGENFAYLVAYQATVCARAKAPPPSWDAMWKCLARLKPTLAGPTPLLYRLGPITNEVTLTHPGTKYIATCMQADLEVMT
T5 sequence (Q99IB8 1662-1715): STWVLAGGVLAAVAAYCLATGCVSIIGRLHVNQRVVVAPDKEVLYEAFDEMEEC
Method: as §1, §2

[6] = system: Zluc cell line (genotype 1b replicon with luciferase, unselected); experiment: Extent of resistance after selection, luciferase assay, Zluc; format: cell-based, HCV; details: selecting conc. 0 nM, EC50 resistant / EC50 wild-type
Method: Replicon cells (genotype 1a or 1b) were treated with various concentrations of compound 52 in the presence of G418. Treatment-emergent genotypic changes were identified by population sequencing of NS3 (both protease and helicase regions). The activity of compound 52 and other compounds was evaluated by NS5A western blot after selection or luciferase assay during and after selection.

T1 sequence (Q81258 1664-1717): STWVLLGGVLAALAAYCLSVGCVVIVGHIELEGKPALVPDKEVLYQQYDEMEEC
T1 sequence (Q81258 1033-1663): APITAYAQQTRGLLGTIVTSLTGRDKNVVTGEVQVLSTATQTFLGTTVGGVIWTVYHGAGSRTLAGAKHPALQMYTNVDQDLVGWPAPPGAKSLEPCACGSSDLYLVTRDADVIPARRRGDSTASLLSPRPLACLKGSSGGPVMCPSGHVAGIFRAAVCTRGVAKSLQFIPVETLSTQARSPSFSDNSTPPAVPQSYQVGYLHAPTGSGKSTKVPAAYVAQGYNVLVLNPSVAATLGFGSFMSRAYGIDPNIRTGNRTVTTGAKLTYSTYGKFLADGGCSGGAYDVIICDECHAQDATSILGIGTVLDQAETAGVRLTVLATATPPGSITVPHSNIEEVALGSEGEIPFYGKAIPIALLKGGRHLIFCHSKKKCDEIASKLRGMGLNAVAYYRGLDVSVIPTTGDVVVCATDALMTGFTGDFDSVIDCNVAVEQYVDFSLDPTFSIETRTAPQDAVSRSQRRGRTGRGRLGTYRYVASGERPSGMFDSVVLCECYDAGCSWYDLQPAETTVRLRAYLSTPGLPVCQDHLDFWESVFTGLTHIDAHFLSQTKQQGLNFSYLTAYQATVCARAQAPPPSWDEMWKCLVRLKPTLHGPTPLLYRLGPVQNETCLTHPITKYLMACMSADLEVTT

## COc1ccc2c(O[C@H]3CCN4C(=O)N(C)CCCC/C=C\[C@@H]5C[C@@]5(C(=O)NS(=O)(=O)C5(C)CC5)NC(=O)[C@@H]4C3)cc(-c3nc(C(F)(F)F)cs3)nc2c1C [Compound 52, 1-methyl-cyclopropanesulfonic acid{(Z)-(1S,4R,6S,18S)-18-[7-methoxy-8-methyl-2-(4-trifluoromethyl-thiazol-2-yl)-quinolin-4-yloxy]-13-methyl-2,14-dioxo-3,13,15-triaza-tricyclo[13.4.0.0*4,6*]nonadec-7-ene-4-carbonyl}amide]
[1]
  IC50: 0.023 ± 0.0019 µM
[2]; 2 HCV-infected patients, comparable Cmax
  total and trough exposure, HCV-infected patients compared to healthy volunteers: 2 fold
[2]; food compared to fasting state
  enhancement of overall plasma exposure by food: approximately 2 fold
[2]; single dose 100 mg, human volunteers
  C24 hr: 19 ± 9 ng/mL
[2]; single dose 200 mg, HCV patients, N = 2
  C24 hr: 131 ng/mL
[2]; single dose 200 mg, human volunteers
  C24 hr: 53 ± 26 ng/mL
[2]; single dose 400 mg Fasted, human volunteers
  C24 hr: 54 ± 28 ng/mL
[2]; single dose 400 mg, human volunteers
  C24 hr: 89 ± 16 ng/mL
Human CYP450 1A2
  IC50: ≥ 10 µM
[3]; 14-day treatment with 10 nM, then cultured with G418 for 21 days
  colonies remained on average: 6 colonies
[3]; replicon RNA, after 10 days of treatment with 10 nM, without G418
  mean maximal RNA reduction: 3.7 log10
[4]
  IC50: 0.0011 ± 0.0001 µM
In vitro; fresh human hepatocytes
  CC50: > 10 µM
In vitro; fresh monkey hepatocytes
  CC50: > 10 µM
In vitro; fresh mouse hepatocytes
  CC50: > 10 µM
In vitro; fresh rat hepatocytes
  CC50: > 10 µM
In vivo; 2 hr
  Mean concentration, Heart: 144 ng/g
  Mean concentration, Liver: 4410 ng/g
  Mean concentration, Plasma: 174 ng/mL
In vivo; 6 hr
  Mean concentration, Heart: 93.0 ng/g
  Mean concentration, Liver: 3540 ng/g
  Mean concentration, Plasma: 121 ng/mL
In vivo; 24 hr
  Mean concentration, Liver: 57.6 ng/g
  Mean concentration, Plasma: 1.45 ng/mL
In vivo; 24 hr, BLQ = below 50 ng/g
  Mean concentration, Heart: BLQ^2
In vivo; cynomolgus monkey, po
  AUC(0-inf): 8920 ± 2190 ng·h/mL
  C24 h: 81 ± 47 ng/mL
  F: 107 ± 40%
In vivo; male, CD-1, mouse, in vivo, iv
  AUC(0-t): 4060 ng·h/mL
  C24 h: 7.9 ± 11 ng/mL
  Vd: 4.4 L/kg
  clearance: 8 mL/min/kg
  half-life: 6.3 h
In vivo; male, CD-1, mouse, in vivo, po
  AUC(0-t): 1410 ng·h/mL
  C24 h: 1.5 ± 0.3 ng/mL
  Cmax: 174 ng/mL
  F: 34.7%
  Tmax: 2 h
In vivo; male, CD-1, mouse, in vivo, po, Mean concentration ratio Heart/Plasma, 2 hr
  Kp: 0.79
In vivo; male, CD-1, mouse, in vivo, po, Mean concentration ratio Heart/Plasma, 6 hr
  Kp: 0.78
In vivo; male, CD-1, mouse, in vivo, po, Mean concentration ratio Liver/Plasma, 2 hr
  Kp: 27
In vivo; male, CD-1, mouse, in vivo, po, Mean concentration ratio Liver/Plasma, 6 hr
  Kp: 30
In vivo; male, CD-1, mouse, in vivo, po, Mean concentration ratio Liver/Plasma, 24 hr
  Kp: 39
In vivo; male, cynomolgus monkey, iv
  AUC(0-inf): 9580 ± 1420 ng·h/mL
  C24 h: 66 ± 26 ng/mL
  Vd: 3.5 ± 0.5 L/kg
  clearance: 3.83 mL/min/kg
  half-life: 10.3 ± 1 h
In vivo; male, cynomolgus monkey, po
  Cmax: 1030 ± 270 ng/mL
  Tmax: 1 h
  half-life: 7.6 ± 2 h
In vivo; mouse
  clearance relative to hepatic blood flow: −9 % of hepatic blood flow
Human UGT1A1
  IC50: ≥ 10 µM
[5]
  IC50: 0.0019 ± 0.0005 µM
[6]
  Fold-Change: 1
